Literature values, collected in US20050101642A1, “Chemical complex comprising a pyridine carboxy derivative and an H2 histamine receptor antagonist” (Astion Development ApS, priority 2000, published 2005).

Biological target: poly(ADP-ribose)polymerase (Homo sapiens, UniProt P09874)
Sequence (P09874 whole entry): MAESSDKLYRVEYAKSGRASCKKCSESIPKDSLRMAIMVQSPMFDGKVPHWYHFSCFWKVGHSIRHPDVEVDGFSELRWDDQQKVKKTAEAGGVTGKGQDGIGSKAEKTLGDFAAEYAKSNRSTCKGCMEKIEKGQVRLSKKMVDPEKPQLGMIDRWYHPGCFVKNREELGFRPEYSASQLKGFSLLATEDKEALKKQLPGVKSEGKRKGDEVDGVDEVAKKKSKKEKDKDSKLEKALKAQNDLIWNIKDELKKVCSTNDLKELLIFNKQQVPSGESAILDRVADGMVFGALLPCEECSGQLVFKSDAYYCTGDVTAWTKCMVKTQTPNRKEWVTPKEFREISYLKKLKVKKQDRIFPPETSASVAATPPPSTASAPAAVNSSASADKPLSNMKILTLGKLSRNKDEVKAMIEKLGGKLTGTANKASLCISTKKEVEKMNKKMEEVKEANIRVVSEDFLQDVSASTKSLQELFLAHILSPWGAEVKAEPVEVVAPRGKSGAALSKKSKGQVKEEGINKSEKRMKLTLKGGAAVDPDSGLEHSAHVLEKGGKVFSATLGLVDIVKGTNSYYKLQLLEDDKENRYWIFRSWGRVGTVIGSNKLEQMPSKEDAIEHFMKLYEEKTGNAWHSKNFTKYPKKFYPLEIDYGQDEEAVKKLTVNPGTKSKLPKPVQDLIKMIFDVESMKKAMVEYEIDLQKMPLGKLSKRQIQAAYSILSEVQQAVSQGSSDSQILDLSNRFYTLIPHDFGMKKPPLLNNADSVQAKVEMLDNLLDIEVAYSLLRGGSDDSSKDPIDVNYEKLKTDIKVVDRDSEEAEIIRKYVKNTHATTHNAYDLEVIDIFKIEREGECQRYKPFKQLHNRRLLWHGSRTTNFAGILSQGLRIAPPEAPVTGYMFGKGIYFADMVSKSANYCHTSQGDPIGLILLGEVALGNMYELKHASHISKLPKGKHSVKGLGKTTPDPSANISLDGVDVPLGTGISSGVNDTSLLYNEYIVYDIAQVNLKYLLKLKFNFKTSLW

**Q.** For `NC(=O)c1cccnc1` [Niacinamide], which “inhibition of poly(ADP-ribose)polymerase” value is on record?
**A.** potent inhibitor
